Article PMC7614683, “A small molecule PI3Kα activator for cardioprotection and neuroregeneration” (Nature, 2023)

Tested on: PI3Kα-WT A549 cells
Experiment: TIRF microscopy of PIP3 reporter, PI3Kα-WT A549
Assay type: cell-based, human
Details: 1938, then BYL719 0.5 μM
Procedure: Phosphoinositide reporters used were GFP-PH-ARNO^I303Ex2 (PIP3 reporter[41]) and mCherry-cPH-TAPP1x3 (PI(3,4)P2 reporter[41]). TIRF microscopy allows selective imaging of the small cell volume, including the plasma membrane, directly adjacent to the coverslip onto which cells have been seeded. HeLa or A549 cells were seeded in Matrigel-coated (Corning #354230; diluted in Opti-MEM at 1:50) 8-well chamber slides (glass bottom, 1.55 refractive index; Thermo Fisher Scientific #155409) at a density of 5,000 cells/well. […]
Image analyses of total reporter intensities were performed with the Fiji open source image analysis package. The region of interest (ROI) corresponding to the footprint of the individual cell across time points were defined using minimal intensity projection to select only pixels present across all time points, following prior subtraction of camera noise (rolling ball method, radius = 500 pixels) and xy drift correction, intensity levels over time were measured. […] All other quantifications were performed using the open source software R/RStudio. The values plotted in Fig. 3d (iii) represent mean±SEM, following signal scaling to minimum and maximum values of the normalised fluorescence intensity for each time point (Fn(t)). […]

Compound: CCN1CCN(c2ccc(Nc3cc(Nc4cccc5c4N(C(C)=O)CC5)ccn3)cc2)CC1 [Compound 1938]
- plasma membrane PIP3 (biosensor): acute plasma membrane-associated PIP3 production
